Results taken from patent publication US9546151B2, “VMAT inhibitory compounds” (Oregon Health & Science University, priority 2014, dated 2017).

Key:
[1] = biological target: T1, VMAT2 (Homo sapiens, UniProt Q05940); conditions: background statements; cited from earlier work
[2] = base; cited from earlier work
[3] = biological target: T1, VMAT2; conditions: high concentrations; cited from earlier work
[4] = biological target: T2, human 5HT2C receptor (Homo sapiens, UniProt P28335); experiment: h5HT2C receptors: [125I]DOI binding; conditions: read-out: Kd for [^125I] DOI at 5HT2C receptors; used in Cheng-Prusoff equation
T2 construct: expressed in transfected cells; host or cells: HEK cells
T2 sequence (P28335 33-458): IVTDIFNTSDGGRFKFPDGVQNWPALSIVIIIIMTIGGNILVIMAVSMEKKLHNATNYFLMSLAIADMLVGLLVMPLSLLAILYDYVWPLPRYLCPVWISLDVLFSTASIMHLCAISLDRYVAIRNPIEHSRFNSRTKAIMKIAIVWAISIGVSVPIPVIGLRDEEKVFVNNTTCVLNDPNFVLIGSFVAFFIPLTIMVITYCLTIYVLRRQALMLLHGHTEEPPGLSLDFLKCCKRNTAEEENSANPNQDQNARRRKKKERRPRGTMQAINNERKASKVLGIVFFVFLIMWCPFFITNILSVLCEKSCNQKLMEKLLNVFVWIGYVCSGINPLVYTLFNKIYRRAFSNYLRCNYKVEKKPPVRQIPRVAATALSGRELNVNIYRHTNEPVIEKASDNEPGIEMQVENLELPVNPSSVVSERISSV
Experimental: The method was adapted from AR Knight et al, Naunyn-Schmeideberg's Arch Pharmacol 370, 114-123 (2004).
Method: Human embryonic kidney cells expressing the human 5HT2A receptor (HEK-h5HT2A) or human 5HT2C receptor (HEK-h5HT2C) were used. The cells were grown until confluent on 15 cm plates. Media was removed, cells were washed with phosphate-buffered saline (PBS), scraped into 2 ml PBS and frozen at −20° C. until needed. Cell suspension was thawed, 10 ml assay buffer (50 mM Tris, pH 7.4 at 37° C., with 0.1% ascorbic acid and 5 mM CaCl2) was added per plate of cells, and polytronned at setting 6 for 5 sec. The homogenate was centrifuged at 15,500 rpm for 20 min. To minimize the residual 5HT concentration, the pellet was resuspended in buffer, polytronned, and centrifuged as above. The final pellet was resuspended in 2 ml buffer/plate of cells.
The binding assay included 50 μl drug, 5HT or buffer, 50 μl cell homogenate, 50 μl [^125I]DOI (˜0.1 nM) and buffer in a final volume of 250 μl. Specific binding was defined as the difference between total binding and binding in the presence of 10 μM 5HT. The reaction was incubated for 1 hour at 37° C., and terminated by filtration through Wallac A filtermats presoaked in 0.05% polyethylenimine using a Tomtec 96-well harvester. Radioactivity remaining on filters was counted in a Wallac betaplate reader. IC50 values were calculated using GraphPad Prism. […]

[5] = biological target: DAT (Homo sapiens, UniProt Q01959); conditions: transfected cells; Miller et al 2004; cited from earlier work
[6] = biological target: T1, VMAT2; conditions: transfected cells; Miller et al 2004; cited from earlier work
[7] = rats, lever press; Harrod et al 2001; cited from earlier work

T1 sequence (Q05940 whole entry, species assumed): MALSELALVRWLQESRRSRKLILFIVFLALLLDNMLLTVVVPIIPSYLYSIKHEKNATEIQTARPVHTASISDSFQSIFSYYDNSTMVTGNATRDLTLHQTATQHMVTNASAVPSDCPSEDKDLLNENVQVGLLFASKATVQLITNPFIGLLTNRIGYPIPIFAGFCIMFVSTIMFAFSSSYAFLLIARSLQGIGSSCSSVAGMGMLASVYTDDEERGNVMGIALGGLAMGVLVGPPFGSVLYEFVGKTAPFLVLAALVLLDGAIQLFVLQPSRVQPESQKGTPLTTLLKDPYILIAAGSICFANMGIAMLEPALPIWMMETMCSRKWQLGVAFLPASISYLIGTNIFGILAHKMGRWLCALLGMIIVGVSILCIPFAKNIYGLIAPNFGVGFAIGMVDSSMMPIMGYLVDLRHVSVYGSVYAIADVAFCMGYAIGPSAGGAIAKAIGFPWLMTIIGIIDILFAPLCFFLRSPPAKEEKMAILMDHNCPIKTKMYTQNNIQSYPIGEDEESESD
Chain of DAT (Q01959 whole entry, species assumed): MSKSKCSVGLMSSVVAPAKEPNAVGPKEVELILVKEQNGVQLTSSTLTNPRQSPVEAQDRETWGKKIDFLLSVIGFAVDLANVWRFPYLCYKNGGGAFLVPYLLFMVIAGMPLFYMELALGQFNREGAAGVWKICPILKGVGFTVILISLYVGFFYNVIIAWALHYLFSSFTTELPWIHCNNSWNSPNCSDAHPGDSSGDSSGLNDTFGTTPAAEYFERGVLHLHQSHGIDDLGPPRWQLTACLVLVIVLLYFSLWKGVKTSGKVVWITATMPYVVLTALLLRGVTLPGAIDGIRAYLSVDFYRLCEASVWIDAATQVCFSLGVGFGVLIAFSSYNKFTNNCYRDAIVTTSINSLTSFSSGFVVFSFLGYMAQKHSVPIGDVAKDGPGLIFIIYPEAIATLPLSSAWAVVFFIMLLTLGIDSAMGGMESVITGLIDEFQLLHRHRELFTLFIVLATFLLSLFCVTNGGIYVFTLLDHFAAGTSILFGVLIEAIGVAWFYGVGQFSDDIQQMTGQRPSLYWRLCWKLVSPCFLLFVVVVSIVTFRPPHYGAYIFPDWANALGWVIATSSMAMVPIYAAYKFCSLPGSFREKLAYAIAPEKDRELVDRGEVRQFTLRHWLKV

## O=C(c1ccc(F)cc1)C1CCN(CCn2c(=O)[nH]c3ccccc3c2=O)CC1 [Ketanserin]
[1]
  affinity for VMAT2 (in words): high affinity

## CN[C@@H](C)Cc1ccccc1 [MA, Methamphetamine]
[2]
  pKa: 9.8
[3]
  concentration for inhibition of [^3H]DTBZ binding: 1.2 mM

## COc1cc(CC(C)N)c(OC)cc1I (stereo not shown) [[^125I] DOI]
[4]
  Kd: 4.18 nM

## CN1[C@@H](CC(=O)c2ccccc2)CCC[C@H]1C[C@H](O)c1ccccc1 [lobeline, 2-((2R,6S)-6-((S)-2-Hydroxy-2-phenylethyl)-1-methylpiperidin-2-yl)-1-phenylethanone]
[5]
  affinity at the DAT: 5.4 µM
[6]
  affinity at VMAT2: 4.3 µM
[7]
  responding for intravenous MA or sucrose after pretreatment: decreased responding to both acutely
